“And” between values parts separate entries of the source, which are not always exact repeats. Identical values can stand only once. Like-named read-outs stand apart in the source and are kept apart here. Where a SMILES comes first, the peptide text is derived from it. [ ]: non-standard residue; d: D form. Aib = CC(C)(N)C(=O)O
Experiments:
GLP-1R = GLP-1R (Homo sapiens, UniProt P43220); assay: β-arrestin 2 recruitment (BRET); type: cell-based; design: expressed in transfected cells; host or cells: HEK293T; conditions: GLP-1R WT, HEK293T; for Emax: HEK-293T
Experimental: (§1) HEK293T cells (3.2 × 10^6 cells/10 cm plate) were grown for 24 h before transiently transfection with 15 μg plasmid containing GIPR, GLP-1R or GCGR tagged with Rluc8 and β-arrestin 2 with a Venus-tag at the N terminus at a ratio of 1:9 by Lipofectamine 3000 transfection reagent. After cells were grown for 24 h, transiently transfected cells were then seeded onto poly-D-lysine coated 96-well culture plates (50,000 cells/well) in DMEM with 10% FBS. Cells were grown for 20 h before incubation in assay buffer (HBSS supplemented with 10 mM HEPES, 0.1% BSA or 0.1% casein, pH 7.4) for 30 min at 37 °C. Coelentrazine-h (Yeasen Biotech) was added to a final concentration of 5 μM for 5 min before bioluminescence resonance energy transfer (BRET) readings were made using an EnVision plate reader (PerkinElmer). BRET baseline measurements were collected for 15 cycles prior to ligand addition. After which, BRET was measured for 55 cycles.

GIPR [1] = target: T1, GIPR (Homo sapiens, UniProt P48546); assay: Whole-cell binding assay, competition with 125I-GIP1-42; design: acylated tirzepatide to the full-length or modified; Flag; expressed in transfected cells
T1 sequence (P48546 22-466): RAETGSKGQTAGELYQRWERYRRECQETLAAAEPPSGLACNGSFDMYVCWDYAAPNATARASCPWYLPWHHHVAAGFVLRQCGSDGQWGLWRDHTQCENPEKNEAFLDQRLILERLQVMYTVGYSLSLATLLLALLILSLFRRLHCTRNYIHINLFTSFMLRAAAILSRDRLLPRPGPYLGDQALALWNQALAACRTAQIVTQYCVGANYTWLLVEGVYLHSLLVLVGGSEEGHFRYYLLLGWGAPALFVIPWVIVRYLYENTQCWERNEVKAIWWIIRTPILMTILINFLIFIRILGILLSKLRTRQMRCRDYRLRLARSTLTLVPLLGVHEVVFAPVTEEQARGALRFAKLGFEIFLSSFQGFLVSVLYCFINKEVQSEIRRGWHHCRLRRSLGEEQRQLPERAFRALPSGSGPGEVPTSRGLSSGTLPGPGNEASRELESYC
Experimental: Human embryonic kidney 293 cells containing SV40 large T-antigen (HEK293T) were cultured in DMEM (Gibco) supplemented with 10% (v/v) fetal bovine serum (FBS, Gibco), 1 mM sodium pyruvate (Gibco) and 100 units/mL penicillin and 100 μg/mL streptomycin at 37 °C in 5% CO2. Chinese hamster ovary (CHO-K1) cells were cultured in F-12 (Gibco) containing 10% FBS, 100 units/mL penicillin and 100 μg/mL streptomycin at 37 °C in 5% CO2. For cAMP and receptor expression assays, HEK293T cells were seeded into 6-well cell culture plates at a density of 7 × 10^5 cells per well. After overnight incubation, cells were transfected with GIPR, GLP-1R or GCGR construct using Lipofectamine 2000 or Lipofectamine 3000 transfection reagent (Invitrogen). For whole-cell binding assay, CHO-K1 cells were seeded into 96-well fibronectin-treated cell culture plates at a density of 3 × 10^4 cells per well. After overnight incubation, cells were transfected with GIPR, GLP-1R or GCGR construct using Lipofectamine 2000 transfection reagent (Invitrogen). Following 24 h culturing, the transfected cells were ready for use.
For GIPR, CHO-K1 cells were cultured in F-12 medium with 10% FBS and seeded at a density of 30,000 cells/well in Isoplate-96 plates (PerkinElmer). The WT or mutant GIPR was transiently transfected using Lipofectamine 2000 transfection reagent as previous described. They were then washed twice using F-12 with 0.1% BSA or 0.1% casein, 33 mM HEPES, and incubated for 2 h at 37 °C. […] Following incubation, cells were washed three times with ice-cold PBS and lysed by addition of 50 μL lysis buffer (PBS supplemented with 20 mM Tris-HCl, 1% Triton X-100, pH 7.4). Fifty µL of scintillation cocktail (OptiPhase SuperMix, PerkinElmer) were added and the plates were subsequently counted for radioactivity (counts per minute, CPM) in a MicroBeta^2 microplate counter (PerkinElmer).

GIPR [2] = target: T1, GIPR; assay: β-arrestin 2 recruitment (BRET); type: cell-based; design: expressed in transfected cells; host or cells: HEK293T; conditions: GIPR WT, HEK293T; for EC50: read-out: β-arrestin 2 recruitment pEC50 (converted); for Emax: HEK-293T
Experimental: as §1, with “After” for “HEK293T cells (3.2 × 10^6 cells/10 cm plate) were grown for 24 h before transiently transfection with 15 μg plasmid containing GIPR, GLP-1R or GCGR tagged with Rluc8 and β-arrestin 2 with a Venus-tag at the N terminus at a ratio of 1:9 by Lipofectamine 3000 transfection reagent. After”

[3] = Fig. 7c receptor binding profile, n = 3 in duplicate, SEM, read-out: GIPR (pIC50 ± S.E.M.) (converted)
[4] = GIPR WT, 0.1% BSA, CHO-K1, read-out: Binding pIC50 (converted)
[5] = GIPR WT, 0.1% casein, CHO-K1, read-out: Binding pIC50 (converted)
[6] = GIPR WT, CHO-K1, read-out: binding pIC50 (converted)
[7] = GIPR, effect of tirzepatide acylation, CHO-K1, read-out: binding pIC50 (converted)

GLP-1R, sequence (P43220 24-463): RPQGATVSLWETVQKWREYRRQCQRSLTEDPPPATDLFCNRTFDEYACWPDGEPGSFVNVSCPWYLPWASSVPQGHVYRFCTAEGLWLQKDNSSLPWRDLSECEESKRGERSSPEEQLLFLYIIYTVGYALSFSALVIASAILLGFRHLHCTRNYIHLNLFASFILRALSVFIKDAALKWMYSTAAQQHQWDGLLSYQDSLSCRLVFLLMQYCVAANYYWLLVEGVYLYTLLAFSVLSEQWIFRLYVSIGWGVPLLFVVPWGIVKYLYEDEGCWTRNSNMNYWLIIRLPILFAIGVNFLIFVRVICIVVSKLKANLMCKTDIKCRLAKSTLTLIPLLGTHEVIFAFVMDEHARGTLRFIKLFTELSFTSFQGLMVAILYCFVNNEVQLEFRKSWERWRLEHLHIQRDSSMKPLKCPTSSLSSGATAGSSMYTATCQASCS

| Compound | Emax (GLP-1R; 0.1% BSA) | Emax (GLP-1R; 0.1% casein) | IC50 (GIPR [1]; [3]) | IC50 (GIPR [1]; [4]) | binding Span (GIPR [1]; GIPR WT, 0.1% casein, CHO-K1) | IC50 (GIPR [1]; [5]) | binding Span (GIPR [1]; GIPR WT, CHO-K1) | IC50 (GIPR [1]; [6]) | EC50 (GIPR [2]; 0.1% casein) | Emax (GIPR [2]; 0.1% BSA) | Emax (GIPR [2]; 0.1% casein) | IC50 (GIPR [1]; [7]) | EC50 (GLP-1R; 0.1% casein, read-out: β-arrestin 2 recruitment pEC50 (converted)) | binding Span (GIPR [1]; GIPR, effect of tirzepatide acylation, CHO-K1) |
| --- | --- | --- | --- | --- | --- | --- | --- | --- | --- | --- | --- | --- | --- | --- |
| CCCCCCCCCCCCCCCC(=O)N[C@@H](CCC(=O)NCCCC[C@H](NC(=O)[C@H](CC(=O)O)NC(=O)[C@H](CO)NC(=O)[C@@H](NC(=O)[C@H](Cc1ccccc1)NC(=O)[C@@H](NC(=O)CNC(=O)[C@H](CCC(N)=O)NC(=O)C(C)(C)NC(=O)[C@@H](N)Cc1c[nH]cn1)[C@@H](C)O)[C@@H](C)O)C(=O)N[C@@H](CO)C(=O)N[C@@H](CCCCN)C(=O)N[C@@H](Cc1ccc(O)cc1)C(=O)N[C@@H](CC(C)C)C(=O)N[C@@H](CC(=O)O)C(=O)N[C@@H](CCC(=O)O)C(=O)N[C@@H](CCCNC(=N)N)C(=O)N[C@@H](C)C(=O)N[C@@H](C)C(=O)N[C@@H](CCC(N)=O)C(=O)N[C@@H](CC(=O)O)C(=O)N[C@@H](Cc1ccccc1)C(=O)N[C@H](C(=O)N[C@@H](CCC(N)=O)C(=O)N[C@@H](Cc1c[nH]c2ccccc12)C(=O)N[C@@H](CC(C)C)C(=O)N[C@@H](CC(C)C)C(=O)N[C@@H](CC(=O)O)C(=O)NCC(=O)NCC(=O)N1CCC[C@H]1C(=O)N[C@@H](CO)C(=O)N[C@@H](CO)C(=O)NCC(=O)N[C@@H](C)C(=O)N1CCC[C@H]1C(=O)N1CCC[C@H]1C(=O)N1CCC[C@H]1C(=O)N[C@@H](CO)C(N)=O)C(C)C)C(=O)O [Peptide 20] | 73.5 ± 1.86% | 81 ± 1.28% | 6.61 nM | 13.2 nM | 99.92 ± 6.37 | 3.39 nM | 97.43 ± 3.89 % WT | 18.2 nM and 10.7 nM |  |  |  |  |  |  |
| CC(C)C[C@H](NC(=O)[C@H](CC(C)C)NC(=O)[C@H](Cc1c[nH]c2ccccc12)NC(=O)[C@H](CCC(N)=O)NC(=O)[C@@H](NC(=O)[C@H](Cc1ccccc1)NC(=O)[C@H](CC(=O)O)NC(=O)[C@H](CCC(N)=O)NC(=O)[C@H](C)NC(=O)[C@H](C)NC(=O)[C@H](CCCNC(=N)N)NC(=O)[C@H](CCC(=O)O)NC(=O)[C@H](CC(=O)O)NC(=O)[C@H](CC(C)C)NC(=O)[C@H](Cc1ccc(O)cc1)NC(=O)[C@H](CCCCN)NC(=O)[C@H](CO)NC(=O)[C@H](CCCCN)NC(=O)[C@H](CC(=O)O)NC(=O)[C@H](CO)NC(=O)[C@@H](NC(=O)[C@H](Cc1ccccc1)NC(=O)[C@@H](NC(=O)CNC(=O)[C@H](CCC(N)=O)NC(=O)C(C)(C)NC(=O)[C@@H](N)Cc1c[nH]cn1)[C@@H](C)O)[C@@H](C)O)C(C)C)C(=O)N[C@@H](CC(=O)O)C(=O)NCC(=O)NCC(=O)N1CCC[C@H]1C(=O)N[C@@H](CO)C(=O)N[C@@H](CO)C(=O)NCC(=O)N[C@@H](C)C(=O)N1CCC[C@H]1C(=O)N1CCC[C@H]1C(=O)N1CCC[C@H]1C(=O)N[C@@H](CO)C(N)=O [Non-lipidated peptide 20] (H-H[Aib]QGTFTSDKSKYLDERAAQDFVQWLLDGGPSSGAPPPS-NH2; N-terminus and C-terminus assumed) | 65.4 ± 1.04% | 64.3 ± 3.97% |  | 51.3 nM |  | 170 nM |  |  |  |  |  |  |  |  |
| CC[C@H](C)[C@H](NC(=O)[C@H](CC(C)C)NC(=O)[C@H](Cc1c[nH]c2ccccc12)NC(=O)[C@H](CCC(N)=O)NC(=O)[C@@H](NC(=O)[C@H](Cc1ccccc1)NC(=O)[C@H](C)NC(=O)[C@H](CCCCNC(=O)COCCOCCNC(=O)COCCOCCNC(=O)CC[C@H](NC(=O)CCCCCCCCCCCCCCCCCCC(=O)O)C(=O)O)NC(=O)[C@H](CCC(N)=O)NC(=O)[C@H](C)NC(=O)[C@@H](NC(=O)[C@H](CCCCN)NC(=O)[C@H](CC(=O)O)NC(=O)[C@H](CC(C)C)NC(=O)C(C)(C)NC(=O)[C@@H](NC(=O)[C@H](CO)NC(=O)[C@H](Cc1ccc(O)cc1)NC(=O)[C@H](CC(=O)O)NC(=O)[C@H](CO)NC(=O)[C@@H](NC(=O)[C@H](Cc1ccccc1)NC(=O)[C@@H](NC(=O)CNC(=O)[C@H](CCC(=O)O)NC(=O)C(C)(C)NC(=O)[C@@H](N)Cc1ccc(O)cc1)[C@@H](C)O)[C@@H](C)O)[C@@H](C)CC)[C@@H](C)CC)C(C)C)C(=O)N[C@@H](C)C(=O)NCC(=O)NCC(=O)N1CCC[C@H]1C(=O)N[C@@H](CO)C(=O)N[C@@H](CO)C(=O)NCC(=O)N[C@@H](C)C(=O)N1CCC[C@H]1C(=O)N1CCC[C@H]1C(=O)N1CCC[C@H]1C(=O)N[C@@H](CO)C(N)=O [Tirzepatide] |  |  | 31.6 nM |  | 92.95 ± 3.97 | 3.16 nM | 102.92 ± 6.94 % WT | 89.1 nM and 97.7 nM | 18.6 nM | 53.4 ± 2.32% | 53.4 ± 1.93% | 105 nM |  |  |
| CC[C@H](C)[C@H](NC(=O)[C@H](CC(C)C)NC(=O)[C@H](Cc1c[nH]c2ccccc12)NC(=O)[C@H](CCC(N)=O)NC(=O)[C@@H](NC(=O)[C@H](Cc1ccccc1)NC(=O)[C@H](C)NC(=O)[C@H](CCCCN)NC(=O)[C@H](CCC(N)=O)NC(=O)[C@H](C)NC(=O)[C@@H](NC(=O)[C@H](CCCCN)NC(=O)[C@H](CC(=O)O)NC(=O)[C@H](CC(C)C)NC(=O)C(C)(C)NC(=O)[C@@H](NC(=O)[C@H](CO)NC(=O)[C@H](Cc1ccc(O)cc1)NC(=O)[C@H](CC(=O)O)NC(=O)[C@H](CO)NC(=O)[C@@H](NC(=O)[C@H](Cc1ccccc1)NC(=O)[C@@H](NC(=O)CNC(=O)[C@H](CCC(=O)O)NC(=O)C(C)(C)NC(=O)[C@@H](N)Cc1ccc(O)cc1)[C@@H](C)O)[C@@H](C)O)[C@@H](C)CC)[C@@H](C)CC)C(C)C)C(=O)N[C@@H](C)C(=O)NCC(=O)NCC(=O)N1CCC[C@H]1C(=O)N[C@@H](CO)C(=O)N[C@@H](CO)C(=O)NCC(=O)N[C@@H](C)C(=O)N1CCC[C@H]1C(=O)N1CCC[C@H]1C(=O)N1CCC[C@H]1C(=O)N[C@@H](CO)C(N)=O [Non-acylated tirzepatide] | 36.6 ± 0.52% | 40.77 ± 0.37% |  |  | 88.80 ± 5.25 | 3.39 nM |  |  | 14.8 nM | 57.1 ± 1.97% | 59.8 ± 1.01% | 12.6 nM | 27.5 nM | 90.71 ± 3.70 % WT or Tirzepatide |

Source: PMC8881610 (Nature Communications, 2022)
